Test results published in patent publication US9402821B2, “Methods and pharmaceutical compositions for treatment of cystic fibrosis” (INSERM (Institut National de la sante et de la Recherche …, priority 2012, dated 2016).
Entries after “also recorded” stand apart in the source; their conditions may differ.

Legend:
[1] = test system: C57BL/6J mice; assay: LPS-induced lung inflammation mouse model, chemokines in BAL fluid by ELISA; format: in vivo; conditions: sulindac 40 mg/kg i.p. 1 h before intratracheal LPS 5 mg/kg
Description: A. Protocol for lung inflammation mouse models. Lung inflammation was induced by two intra tracheal instillation of LPS (5 mg/kg), 24 h and 6 h prior sacrifice. Sulindac (40 mg/kg) or diluents were administered by intraperitoneal injection 1 h before LPS instillation. B. Mouse macrophage inflammatory protein (MIP-2) was monitored in BAL fluid by ELISA assay. LPS-stimulated MIP-2 production was inhibited by sulindac.
Male C57BL/6J mice (8-10 wk old) were treated by intraperitoneal (IP) injection of sulindac (40 mg/kg) or vehicle one hour before the time of endotoxin administration which caused lung injury. Lung inflammation was induced by LPS from E. coli (Sigma) prepared in saline and administered by injection intra-tracheal. In order to track at a single time point after LPS challenge both the early humoral and the late cell infiltrating components of the inflammatory response, a volume of 50 μl LPS solution (5 mg/kg) was administered at two consecutive doses with a 18 h interval between doses. This challenge method enables to track both cytokine and cellular responses to induction of inflammation. […] The chemokines keratinocyte chemoattractant (KC) and mouse macrophage inflammatory protein (MIP-2) were monitored in BAL fluid following the corresponding manufacturers' protocols using a standard sandwich enzyme-linked immune absorbent assay (ELISA, R&D Systems).

[2] = test system: PPAR transcriptional activity; assay: PPAR firefly luciferase reporter assay (3 PPRE motifs) in HeLa cells; format: cell-based; conditions: sulindac 100 μM, 24 h
Description: HeLa control cells were transiently transfected by PPAR firefly luciferase reporter (3 PPRE motifs) and renilla luciferase reference. Cells were treated with diluent (0.5%), ibuprofen (500 μM) or sulindac (100 μM) for 24 h. The PPAR transcriptional activity in cells treated with ibuprofen and sulindac was expressed in percent of diluents. Results of three independent experiments, means±SEM. Unilateral paired t test: ** p<0.01.
To assay the transcriptional activity of AP-1, pAP1Luc, a luciferase reporter plasmid containing five sequential AP-1 binding sites upstream of a minimum promoter element, was used. Transcriptional activity of PPAR was evaluated with reporter constructs with three sequential PPRE consensus sequences, binding PPAR factors. Transient transfection were realized as described before. To normalize transfection efficiency, a renilla luciferase reporter construct (pRL-TK, Promega) was co-transfected with each of the firefly luciferase constructs. To induced AP-1 activity, cells were exposed to TNFα (10 ng/mL) for 1 hour. Cells were pre- and treated with sulindac, ibuprofen or vehicule control one hour before and four hours after this induction. For PPAR activity, cells were treated with pharmacological drugs for 24 hours.
Luciferase assay was realized as described before.

[3] = biological target: CFTR (Homo sapiens, UniProt P13569); assay: Short circuit current, cAMP-dependent Cl secretion (forskolin + IBMX) in HNEC; format: cell-based; set-up: Nasal polyps were obtained from non-CF requiring surgery for their nasal polyposis; endogenous in cells; host or cells: primary human nasal epithelial cells (HNEC) from nasal polyps of non-CF patients; conditions: primary HNEC, air-liquid interface, 500 μM basolateral, 2 h, mean SEM of five filters
Sequence of CFTR (P13569 whole entry): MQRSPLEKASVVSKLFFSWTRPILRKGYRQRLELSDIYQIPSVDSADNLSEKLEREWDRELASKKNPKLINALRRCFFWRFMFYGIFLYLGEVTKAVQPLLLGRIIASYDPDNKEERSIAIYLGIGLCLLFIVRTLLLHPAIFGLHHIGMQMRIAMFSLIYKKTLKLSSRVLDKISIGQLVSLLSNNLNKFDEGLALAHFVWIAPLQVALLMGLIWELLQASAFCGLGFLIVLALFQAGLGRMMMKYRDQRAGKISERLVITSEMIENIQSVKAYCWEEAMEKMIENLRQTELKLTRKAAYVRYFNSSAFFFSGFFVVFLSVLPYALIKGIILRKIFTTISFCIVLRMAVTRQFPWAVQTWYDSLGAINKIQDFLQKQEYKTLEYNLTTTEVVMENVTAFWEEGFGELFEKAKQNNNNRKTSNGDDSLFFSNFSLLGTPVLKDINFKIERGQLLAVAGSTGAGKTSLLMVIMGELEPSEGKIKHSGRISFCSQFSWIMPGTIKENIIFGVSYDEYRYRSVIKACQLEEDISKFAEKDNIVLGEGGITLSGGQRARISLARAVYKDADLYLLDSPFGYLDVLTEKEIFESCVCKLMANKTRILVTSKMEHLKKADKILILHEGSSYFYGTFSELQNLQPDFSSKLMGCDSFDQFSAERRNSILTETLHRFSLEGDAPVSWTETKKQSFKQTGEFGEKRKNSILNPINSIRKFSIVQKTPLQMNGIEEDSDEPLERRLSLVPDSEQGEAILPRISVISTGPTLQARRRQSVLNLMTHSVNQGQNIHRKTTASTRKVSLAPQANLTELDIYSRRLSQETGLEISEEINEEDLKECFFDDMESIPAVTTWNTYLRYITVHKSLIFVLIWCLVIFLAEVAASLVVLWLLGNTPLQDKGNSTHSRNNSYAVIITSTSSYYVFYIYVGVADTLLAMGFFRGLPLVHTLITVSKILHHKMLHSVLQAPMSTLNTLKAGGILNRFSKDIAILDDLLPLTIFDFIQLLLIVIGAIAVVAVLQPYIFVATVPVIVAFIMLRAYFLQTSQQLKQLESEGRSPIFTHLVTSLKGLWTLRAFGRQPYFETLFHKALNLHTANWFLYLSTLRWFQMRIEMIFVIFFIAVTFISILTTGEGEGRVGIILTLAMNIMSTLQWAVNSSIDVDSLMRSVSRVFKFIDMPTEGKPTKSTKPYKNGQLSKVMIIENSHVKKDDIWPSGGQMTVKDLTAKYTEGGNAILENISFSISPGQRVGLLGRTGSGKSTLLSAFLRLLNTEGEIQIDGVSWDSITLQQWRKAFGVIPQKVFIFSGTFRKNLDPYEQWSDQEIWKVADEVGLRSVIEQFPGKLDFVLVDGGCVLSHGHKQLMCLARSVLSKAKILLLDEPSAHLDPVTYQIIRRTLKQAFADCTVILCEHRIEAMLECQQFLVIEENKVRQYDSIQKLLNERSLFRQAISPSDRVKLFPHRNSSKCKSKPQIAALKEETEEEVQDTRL
Description: B. Chloride activity in HeLa Wt cells was measured by MQAE assay, after 3 h of treatment by NSAID (500 μM) or diluent. CFTR activity was expressed in rate of UFA/sec, calculated by difference between ((Ft−F0)/t) with CFTR induction and ((Ft−F0)/t) without CFTR induction. […] C. Primary culture of human nasal epithelial cell (HNEC) grown on Snapwell filters (air-liquid interface) were exposed basolaterally to sulindac (500 μM) or vehicle for 2 h and immediately mounted into a voltage-clamp system to bioelectric measurements. Short circuit current was measured with addition of amiloride to evaluated amiloride sensitive transport or with forskolin and IBMX for induced cAMP-dependent Cl secretion.
Two cell models were used to the interface air-liquid model for ionic efflux assays by short circuit current and to dose the basolateral IL-8 secretion. Calu-3 are derived from lung adenocarcinoma and are able to polarized and express a high rate of endogenous CFTR. […] Transepithelial resistance and transepithelial potential difference were measured every 3 days using a microvoltmeter (World Precision Instruments, Astonbury, UK).
Cells were grown at 37° C. in a 5% CO2 incubator in DMEM with Glutamax (Invitrogen) and 10% fetal bovine serum (SVF). […] The effects of treatment in HNEC cultures on snapwell inserts were evaluated between days 10 and 16. […]

## CC1=C(CC(=O)O)c2cc(F)ccc2/C1=C\c1ccc([S+](C)[O-])cc1 (centres unmarked) [sulindac, (Z)-5-fluoro-2-methyl-1-[p-(methylsulfinyl)benzylidene]-indene-3-acetic acid]
[1]
  KC (keratinocyte-derived chemokine) in BAL fluid: decreased the secretion of KC and MIP-2
  MIP-2 in BAL fluid: inhibited; also recorded: decreased the secretion of KC and MIP-2
[2]
  PPAR transcriptional activity: increase in the transcriptional activity of PPAR
[3]
  increase of CFTR activity (short circuit current, forskolin + IBMX): increase of CFTR activity
[3]; listed as Sulindac
  increase of CFTR activity (short circuit current, forskolin + IBMX): 46.35%
